Laboratory results taken from PubChem BioAssay (NCI).
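Cells were grown in 96-well plates and exposed to each compound for 48 hours at five concentrations; endpoints were interpolated linearly between bracketing concentrations, or set to the highest concentration if not reached. Here, GI50 denotes the concentration required for 50% inhibition of growth. TGI denotes the concentration required for complete inhibition of growth.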

Tests used:
Assay in all cases: NCI anticancer screen, dose series, 48 h
HL-60(TB) leukemia = system: HL-60(TB) leukemia
A498 renal = system: A498 renal
RXF 393 renal = system: RXF 393 renal
LOX IMVI melanoma = system: LOX IMVI melanoma
NCI-H226 lung = system: NCI-H226 lung
K-562 leukemia = system: K-562 leukemia
EKVX NSCLC = system: EKVX NSCLC
CAKI-1 renal = system: CAKI-1 renal
HS 578T breast = system: HS 578T breast
MDA-MB-435 = system: MDA-MB-435

| SMILES | TGI (HL-60(TB) leukemia) [µM] | TGI (A498 renal) [µM] | TGI (RXF 393 renal) [µM] | TGI (LOX IMVI melanoma) [µM] | TGI (NCI-H226 lung) [µM] | TGI (K-562 leukemia) [µM] | TGI (EKVX NSCLC) [µM] | TGI (CAKI-1 renal) [µM] | GI50 (HL-60(TB) leukemia) [µM] | GI50 (EKVX NSCLC) [µM] | GI50 (CAKI-1 renal) [µM] | GI50 (A498 renal) [µM] | GI50 (RXF 393 renal) [µM] | GI50 (HS 578T breast) [µM] | TGI (HS 578T breast) [µM] | GI50 (LOX IMVI melanoma) [µM] | GI50 (NCI-H226 lung) [µM] | GI50 (K-562 leukemia) [µM] | TGI (MDA-MB-435) [µM] | GI50 (MDA-MB-435) [µM] |
| --- | --- | --- | --- | --- | --- | --- | --- | --- | --- | --- | --- | --- | --- | --- | --- | --- | --- | --- | --- | --- |
| CCN1C(C)=NC2C(=O)c3ccccc3C(=O)C21 (configuration not stated) | > 100 | > 100 | > 100 | > 100 | > 100 | > 100 | – | – | – | – | – | – | – | – | – | – | – | – | – | – |
| COc1ccc2cc(C(=O)c3ccccc3C(=O)O)ccc2c1 | > 100 | > 100 | > 100 | > 100 | > 100 | > 100 | > 100 | > 100 | – | – | – | – | – | – | – | – | – | – | – | – |
| COc1cc2c(c(OC)c1OC)-c1ccc([O-])c(=O)cc1[C@@H](NC(C)=O)CC2.COc1cc2c(c(OC)c1OC)-c1ccc([O-])c(=O)cc1[C@@H](NC(C)=O)CC2.[Cu+2] | 4.82 | 8.53 | > 100 | > 100 | > 100 | > 100 | > 100 | 63.1 | 2.05 | 4.64 | 4.96 | 2.41 | 3.87 | 1.94 | > 100 | 4.3 | 5.13 | 2.48 | – | – |
| CC1(C)CC23C(=O)N(c4ccccc4)C(=Nc4ccccc4)NC2=CC(C#N)=C(C#N)C3O1 (configuration not stated) | 89.9 | > 100 | > 100 | > 100 | 88.8 | > 100 | > 100 | > 100 | – | – | – | – | – | – | – | – | – | – | – | – |
| O=C1c2ccccc2C(=O)N1/N=C\c1ccc(Br)cc1 | > 100 | > 100 | > 10 | > 10 | > 100 | > 100 | > 100 | > 10 | > 100 | > 100 | – | > 100 | – | – | – | – | > 100 | > 100 | – | – |
| CC1=CC(=O)C(C)(C2=NC(C)(C)CO2)c2ccccc21 (configuration not stated) | > 100 | – | > 100 | – | > 100 | > 100 | > 100 | > 100 | – | – | – | – | – | – | – | – | – | – | – | – |
| CCCC(OCC)(OCC)OCC | > 100 | > 100 | > 100 | > 100 | > 100 | > 100 | > 100 | > 100 | – | – | – | – | – | – | – | – | – | – | – | – |
| CC(=O)CC(=O)N(CCN(C(=O)CC(C)=O)c1ccccc1)c1ccccc1 | > 100 | > 100 | > 100 | > 100 | > 100 | > 100 | > 100 | > 100 | – | – | – | – | – | – | – | – | – | – | – | – |
| COc1cccc(/C=C(/C(=O)O)c2cc(OC)c(OC)c(OC)c2)c1 | > 100 | > 100 | > 100 | > 100 | > 100 | > 100 | > 100 | > 100 | – | – | – | – | – | – | – | – | – | – | – | – |
| CC1(C)CCC(=O)c2c(O)ccc(O)c21 | – | – | 77.7 | – | > 100 | > 100 | > 100 | > 100 | – | – | – | – | – | – | – | – | – | – | – | – |
| CSc1nc(NC2OCC(OC(C)=O)C(OC(C)=O)C2OC(C)=O)c(N=CC=Nc2c(NC3OCC(OC(C)=O)C(OC(C)=O)C3OC(C)=O)nc(SC)n(C)c2=O)c(=O)n1C (configuration not stated) | > 100 | > 100 | > 100 | > 100 | – | > 100 | > 100 | – | – | – | – | – | – | – | – | – | – | – | – | – |
| COc1cc2[nH]c(C(=O)c3cc(OC)c(OC)c(OC)c3)c(N)c2cc1C#CCO | 0.956 | 2.14 | – | 21.5 | > 100 | > 100 | – | > 100 | 0.313 | – | 0.537 | 0.23 | – | 0.345 | 72.3 | 0.502 | 0.752 | 0.347 | – | – |
| O=C(O)C(=O)Cc1ccc2c(c1)OCO2 | > 100 | > 100 | > 100 | > 100 | > 100 | > 100 | > 100 | > 100 | – | – | – | – | – | – | – | – | – | – | > 100 | – |
| COc1ccc2[nH]c3c4c(c5cc(C(C)(C)C)ccc5c3c2c1)C(=O)N(c1ccccc1)C4=O | > 100 | 61.6 | > 100 | > 100 | > 100 | > 100 | > 100 | > 100 | – | – | – | – | – | – | – | – | – | – | – | – |
| Cc1cc(C)c(C(=O)O)c(N)c1O | > 100 | > 100 | > 100 | > 100 | > 100 | > 100 | > 100 | > 100 | – | – | – | – | – | – | – | – | – | – | – | – |
| COc1cc(C(=O)C/C(CCC(=O)Nc2ccccc2[N+](=O)[O-])=N\NC(=O)C(N)=O)ccc1O | > 100 | – | > 100 | > 100 | > 100 | > 100 | > 100 | > 100 | – | – | – | – | – | – | – | – | – | – | – | – |
| CN1CCC23c4c5ccc(O)c4OC2C(=NN=C2CCC4(O)C6Cc7ccc(O)c8c7C4(CCN6C)C2O8)CCC3(O)C1C5 (configuration not stated) | > 100 | > 100 | – | > 100 | > 100 | > 100 | > 100 | > 100 | – | – | – | – | – | – | – | – | – | – | – | – |
| C[C@H](c1ccc(Cl)cc1N)N1C(=O)c2cc(I)ccc2N(CCCN2CCN(C)CC2)C(=O)[C@@H]1c1ccc(Cl)cc1 | 3.69 | 2.7 | – | – | 2.86 | 3.3 | 3.21 | 2.81 | 1.89 | 1.55 | 1.3 | 1.3 | – | 1.74 | 3.84 | – | 1.33 | 1.57 | 3.57 | 1.81 |
| CS(=O)(=O)c1ccc(N/N=C/c2c(-c3ccc(S(C)(=O)=O)cc3)[nH]c3ccc(F)cc23)cc1 | > 50 | 4.88 | 1.94 | 3.64 | – | > 50 | > 50 | > 50 | 2.59 | 40.2 | > 50 | 1.39 | 0.904 | – | – | 1.24 | – | 2 | > 50 | 3.12 |
| OCCN1CCN(CCO)Cc2ccccc2OCCOc2ccccc2C1 | – | > 100 | > 100 | > 100 | > 100 | > 100 | > 100 | > 100 | – | – | – | – | – | – | – | – | – | – | – | – |
| CC(C)(Cl)CCC1=C(Cl)C(=O)c2ccccc2C1=O | 3.84 | 12 | – | 3.26 | 14.5 | 10.6 | – | 3.46 | 1.33 | – | 1.87 | 1.85 | – | 3.26 | 45.8 | 1.73 | 3.38 | 1.25 | 4.62 | 2.15 |
